These results are taken from US11014964B2, “Peptide amide compound and preparation method and medical use thereof” (Sichuan Haisco Pharmaceutical Co., Ltd., priority 2017, dated 2021).

One data set has as its target T1, human κ-opioid receptor (Homo sapiens, UniProt P41145).
T1 construct: host or cells: OPRK1 cells (DiscoveRx)
The experiment in a line: Agonist activity on human κ-opioid receptors (inhibition of forskolin-stimulated cAMP release, TR-FRET). Type of data set: cell-based. The note with it: OPRK1 cells (DiscoveRx). The source says:
Test 1: Agonist Activity on Human κ-Opioid Receptors
Forskolin can stimulate the release of cAMP from a human κ-opioid receptor-overexpressing cell line, OPRK1 cells (DiscoveRx), and κ-opioid receptor agonists can inhibit the cAMP release stimulated by forskolin. By detecting the inhibitory effect of the test compound on the cAMP release stimulated by forskolin, the agonistic activity of the compound on the human κ-opioid receptor can be determined. First, a certain concentration of forskolin and different concentrations of the test compound were incubated with human κ-opioid receptor overexpressing cell lines. A cAMP immunoassay (LANCE®, PerkinElmer) based on time-resolved fluorescence resonance energy transfer (TR-FRET) was used to determine cAMP levels in the stimulated OPRK1 cells. The specific method is as follows:
OPRK1 cells (DiscoveRx) that highly express human κ-opioid receptors were cultured in McCoy's 5A (Gibco 16600-082) medium containing 10% FBS (Gibco 10099-141). On the day of the experiment, the cells in the exponential growth phase were washed and separated with PBS/5 mM EDTA, collected by centrifugation, resuspended with Stimulation Buffer and counted. The concentration of cells was adjusted to 3*10^5 cells/ml. DMSO was used to dissolve Forskolin and the test compound respectively, so that the mother liquor concentration each was 10 mM, and then diluted Forskolin to […] with Stimulation Buffer, and different concentrations of the test compound (the concentrations were 80, 16, 3.2, 0.64, 0.128, 0.0256, 0.00512, 0.001024, 0 μM) was added, 5 μl per well was added to a 384-well plate. 5 μl of cell suspension was added to each well and incubated at room temperature for 30 min. Subsequently, 5 μl of 4×Eu-cAMP tracer working solution (50-fold dilution of Eu-cAMP stock solution with cAMP Detection Buffer) and 5 μl of 4×Ulight-anti-cAMP working solution (150-fold dilution of ULight-anti-cAMP stock solution with cAMP Detection Buffer) were added to each well, and incubated at room temperature for 1 hour. 384-well plates were assayed for cAMP levels using a microplate reader (Perkin Elmer, Envision) TR-FRET method. The obtained data were processed and fitted to EC50 using the origin 7.5 software. The human κ-opioid receptor agonistic activity of the compound of the present invention was measured through the above experiments, and the measured EC50 values are shown in Table 1.
Stimulation Buffer preparation method: 14 mL 1*HBSS (invitrogen, cat. #14025-092), 75 μL 1 M HEPES (Invitrogen, cat. #15630-080), 30 μL 250 mM IBMX was dissolved in DMSO (Sigma, cat. #17018) and mixed with 200 μL 7.5% BSA Stabilizer. pH of the solution was adjusted to 7.4 with 0.1 N NaOH and make up to 15 mL with 1*HBSS.

The next data set has as its system C57 mice. The experiment in a line: Mouse hot plate experiment. The data set is classed as in vivo. The note with it: female C57 mice, subcutaneous, detection 15 minutes after administration, hot plate 56° C., cut-off 30 seconds. Here is the method:
Test 2: Mouse Hot Plate Experiment
18-22 g of female C57 mice were purchased from Chengdu Dashuo Experimental Animal Co., Ltd. The temperature of the hot plate instrument was set to 56° C., and after reaching 56° C., the temperature was stabilized for 30 minutes before experiment. The animals were placed in a hot plate test in order to observe the reaction of licking the hind feet, which was used as an indicator of pain response. The time from the entry of the animal to the hot plate to the heat-induced licking of the hind feet was recorded. Animals that meet the inclusion criteria (response time to lick the hind foot is less than 25s) are included in the group number. The animals were grouped by baseline threshold, with 10 in each group. Compounds of different concentrations were administered subcutaneously at 10 ml/kg, and a detection was carried out after 15 minutes of administration, with 30 seconds as the cut-off time, and the reaction time was recorded. The results were analyzed statistically, and the % MPE value was calculated according to the formula: % MPE=(Tn−T0)/(30−T0), (Tn is the time for the animal to lick the hind foot after administration, T0 is the time for the animal to lick the foot before administration) The experimental results are shown in Table 2.

A short description of a further data set: Rat PK test. Type of data set: in vivo. The note with it: male SD rats, iv, 1 mg/kg (calculated in free form).
Another data set in a line: Mouse PK test. Type of data set: in vivo. Particulars: plasma, male ICR mice, iv, 1 mg/kg (calculated in free form).

Broadly, the EC50 is the midpoint of the concentration-response curve. A higher EC50 goes with a need for much substance. As usually defined, the AUC(0-t) is the area under the concentration-time curve up to a stated or last time point. A word on the half-life: it is the time needed for the level to fall by half in the phase considered.

T1 sequence (P41145 whole entry): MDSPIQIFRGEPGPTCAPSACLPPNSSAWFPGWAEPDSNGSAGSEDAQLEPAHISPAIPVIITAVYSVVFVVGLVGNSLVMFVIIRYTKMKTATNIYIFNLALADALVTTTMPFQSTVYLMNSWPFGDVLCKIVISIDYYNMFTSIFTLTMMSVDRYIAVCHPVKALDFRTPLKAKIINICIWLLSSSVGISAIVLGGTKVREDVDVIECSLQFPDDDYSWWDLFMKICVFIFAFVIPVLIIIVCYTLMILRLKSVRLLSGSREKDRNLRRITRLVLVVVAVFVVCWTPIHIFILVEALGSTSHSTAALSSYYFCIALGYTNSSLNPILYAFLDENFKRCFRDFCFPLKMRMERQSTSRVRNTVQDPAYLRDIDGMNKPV

For `CNC(=O)N1CC2(CCN(C(=O)[C@@H](CCCCN)NC(=O)[C@@H](CC(C)C)NC(=O)[C@@H](Cc3ccccc3)NC(=O)[C@H](N)Cc3ccccc3)CC2)C1` [Compound 15, 7-[(2R)-6-amino-2-[[(2R)-2-[[(2R)-2-[[(2R)-2-amino-3-phenyl-propanoyl]amino]-3-phenyl-propanoyl]amino]-4-methyl-pentanoyl]amino]hexanoyl]-N-methyl-2,7-diazaspiro[3.5]nonane-2-carboxamide; di-trifluoroacetic acid], at human κ-opioid receptor, the EC50 was 0.0117 nM. In the data set with C57 mice, the “MPE(%)” value was −13.29%.
On human κ-opioid receptor, `CC(C)C[C@@H](NC(=O)[C@@H](Cc1ccccc1)NC(=O)[C@H](N)Cc1ccccc1)C(=O)N[C@H](CCCCN)C(=O)N1CCC2(CC1)CC(N)(C(=O)O)C2` [Compound 2, 2-amino-7-[(2R)-6-amino-2-[[(2R)-2-[[(2R)-2-[[(2R)-2-amino-3-phenyl-propanoyl]amino]-3-phenyl-propanoyl]amino]-4-methyl-pentanoyl]amino]hexanoyl]-7-azaspiro[3.5]nonane-2-carboxylic acid; tri-trifluoroacetic acid] yielded an EC50 of 0.41 nM. Besides, the “MPE(%)” value with C57 mice is −17.20%. Also, the Cl in “Rat PK test” is 5.97 ml/kgmin. Also, in the data set “Rat PK test” (rat, plasma), the AUC(0-t) is 2660 ng·h/mL and the half-life was 4.22 h. Moreover, in the data set “Rat PK test” (rat, plasma, read-out: Vdss), the Vd is 1.47 L/kg.
`CC(C)C[C@@H](NC(=O)[C@@H](Cc1ccccc1)NC(=O)[C@H](N)Cc1ccccc1)C(=O)N[C@H](CCCCN)C(=O)N1CC2(C1)CC1(CNC(=O)C1)C2` [Compound 4, (2R)—N-[(1R)-5-amino-1-(9-oxo-2,8-diazadispiro[3.1.4^6.1^4]undecane-2-carbonyl)pentyl]-2-[[(2R)-2-[[(2R)-2-amino-3-phenyl-propanoyl]amino]-3-phenyl-propanoyl]amino]-4-methyl-pentanamide; di-trifluoroacetic acid] registered an EC50 on human κ-opioid receptor of 0.0159 nM. Moreover, the “MPE(%)” value with C57 mice is reported as −19.62%.
With `CC(=O)N1CC2(CCN(C(=O)[C@@H](CCCCN)NC(=O)[C@@H](CC(C)C)NC(=O)[C@@H](Cc3ccccc3)NC(=O)[C@H](N)Cc3ccccc3)CC2)C1` [Compound 8, (2R)—N-[(1R)-1-(2-acetyl-2,7-diazaspiro[3.5]nonane-7-carbonyl)-5-amino-pentyl]-2-[[(2R)-2-[[(2R)-2-amino-3-phenyl-propanoyl]amino]-3-phenyl-propanoyl]amino]-4-methyl-pentanamide; di-trifluoroacetic acid], in the data set “Mouse PK test”, the AUC(0-t) is 1220 ng·h/mL and the half-life is 5.77 h. The molecule further showed an EC50 at human κ-opioid receptor of 0.0112 nM. Also, in the data set on C57 mice, the “MPE(%)” value is recorded as −18.61%.
